This is an account of results in patent US8629143B2, “Potassium channel modulators” (AbbVie Inc., priority 2009, dated 2014).

Assay [1] has as its target T1, KCNQ 2/3 channels (HEK293 cells stably expressing human KCNQ2 and KCNQ3 subunits) (Homo sapiens, UniProt O43525+O43526).
T1 construct: expressed in transfected cells; host or cells: HEK293
The assay can be described thus: KCNQ2/3 channel activation, thallium flux FLIPR assay with BTC-AM dye. The following applies: for Emax: HEK293, maximum response relative to the response produced by 10 μM retigabine (set at 100%), read-out: Max. %; for EC50: HEK293 cells expressing human KCNQ2 and KCNQ3, thallium flux, FLIPR. The class given is cell-based. Summed up: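 HEK293 cells stably expressing human KCNQ2/KCNQ3 were loaded with BTC-AM (3 μg/mL, 2 h, RT) and preincubated with compound for 4 min in pH 7.3 gluconate buffer containing 0.1 mM ouabain. Flux was triggered by 6 mM TlNO3/10 mM K2SO4 and read for 3 min; EC50 came from summed responses over basal, with maximum relative to 10 μM retigabine (100%).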

For assay [2], the system named is Adult male Sprague-Dawley rats. The assay can be described thus: Spinal nerve ligation (SNL) model of neuropathic pain. The class given is in vivo. The following applies: rat SNL model (L5/L6 ligation), about 30 mg/kg, tactile allodynia. From the text:
(§1) Adult male Sprague-Dawley rats (250-300 g body weight, Charles River Laboratories, Portage, Mich.) were used. Animal handling and experimental protocols were approved by the Institutional Animal Care and Use Committee (IACUC) at Abbott Laboratories. For all surgical procedures, animals were maintained under isoflurane anesthesia (4-5% to induce, 1-3% to maintain), and the incision sites were sterilized using a 10% povidone-iodine solution prior to and after surgeries.
Tactile (mechanical) allodynia was measured using calibrated von Frey filaments (Stoelting, Wood Dale, Ill.) as described in Chaplan, S. R., F. W. Bach, J. M. Pogrel, J. M. Chung and T. L. Yaksh, 1994, Quantitative assessment of tactile allodynia in the rat paw, J. Neurosci. Methods, 53, 55. Rats were placed into inverted individual plastic containers (20×12.5×20 cm) on top of a suspended wire mesh grid, and acclimated to the test chambers for 20 minutes. The von Frey filaments were presented perpendicularly to the plantar surface of the selected hind paw, and then held in this position for approximately 8 sec with enough force to cause a slight bend in the filament. Positive responses included an abrupt withdrawal of the hind paw from the stimulus, or flinching behavior immediately following removal of the stimulus. A 50% withdrawal threshold was determined using an up-down procedure (Dixon, W. J., 1980, Efficient analysis of experimental observations, Ann. Rev. Pharmacol. Toxicol., 20, 441). […] Tactile allodynia thresholds were also assessed in several control groups, including naive, sham-operated, and saline infused animals as well as in the contralateral paws of nerve-injured rats. To evaluate the anti-nociceptive effects, animals were administered vehicle or test compound and tactile allodynia was assessed 30 minutes after i.p. administration.
A model of spinal nerve ligation-induced (SNL model) neuropathic pain as originally described by Kim and Chung (Kim, S. H. and J. M. Chung, 1992, Pain 50, 355) was used to test a compound of the present application The left L5 and L6 spinal nerves of the rat were isolated adjacent to the vertebral column and tightly ligated with a 5-0 silk suture distal to the DRG, and care taken to avoid injury of the L4 spinal nerve. The same procedure was performed on Sham rats, but without nerve ligation. All animals were allowed to recover for at least one week and not more than three weeks prior to assessment of tactile allodynia.

In assay [3] the test system is Adult male Sprague-Dawley rats. The assay can be described thus: Capsaicin-induced secondary mechanical hypersensitivity. The class given is in vivo. To be noted: rat, about 30 mg/kg i.p., tactile allodynia 30 minutes after dosing, 180 minutes post-capsaicin.
Source text: as §1
Rats were allowed to acclimate to the study room for 1 h. […] Secondary mechanical hyperalgesia was measured at the heel away from the site of injection at 180 minutes following capsaicin (Joshi et al 2006, Neuroscience 143, 587-596). […]
Tactile (mechanical) allodynia was measured using calibrated von Frey filaments (Stoelting, Wood Dale, Ill.) as described in Chaplan, S. R., F. W. Bach, J. M. Pogrel, J. M. Chung and T. L. Yaksh, 1994, Quantitative assessment of tactile allodynia in the rat paw, J. Neurosci. […] A 50% withdrawal threshold was determined using an up-down procedure (Dixon, W. J., 1980, Efficient analysis of experimental observations, Ann. Rev. Pharmacol. Toxicol., 20, 441). […] Tactile allodynia thresholds were also assessed in several control groups, including naive, sham-operated, and saline infused animals as well as in the contralateral paws of nerve-injured rats. […]
Tactile allodynia was measured as described above.

As a reminder, the EC50 is the concentration at which the effect is half-maximal. With `O=C(C[C@H]1C[C@@H]2CC[C@H]1C2)Nn1nc(-c2ccc(C(F)(F)F)cc2)c2ccccc2c1=O` (racemic) [Example 150, (±)-2-(exo-bicyclo[2.2.1]hept-2-yl)-N-{1-oxo-4-[4-(trifluoromethyl)phenyl]phthalazin-2(1H)-yl}acetamide], in assay [1], the Emax came to 138% and the concentration giving a half-maximal response (EC50) was below 100 nM. Also, the “change in paw withdrawal latency versus vehicle” value (“change” below) in assay [2] is “statistically significant change”.

For `O=C(Cc1ccc(Cl)cc1)Nn1nc(-c2ccc(Br)cc2)c2ccccc2c1=O` [Example 3, N-[4-(4-bromophenyl)-1-oxophthalazin-2(1H)-yl]-2-(4-chlorophenyl)acetamide], in assay [1], the Emax came out at 100% and the 50% effective concentration (EC50) was 100 to 500 nM. Moreover, in assay [3], the “change” value is “statistically significant change”.

`O=C(CC12CC3CC(CC(C3)C1)C2)Nn1nc(-c2ccccc2)c2ccccc2c1=O` [Example 17, 2-(1-adamantyl)-N-(1-oxo-4-phenylphthalazin-2(1H)-yl)acetamide]: in assay [1], the Emax came to 205% and the EC50 was below 100 nM. For the same compound, the “change” value in assay [3] is “statistically significant change”.

In the case of `CC1(C)[C@@H]2C[C@H]1[C@H](CC(=O)Nn1nc(-c3ccc(Cl)cc3)c3ccccc3c1=O)C(F)(F)C2` [Example 88, N-[4-(4-chlorophenyl)-1-oxophthalazin-2(1H)-yl]-2-[(1S,2S,5R)-3,3-difluoro-6,6-dimethylbicyclo[3.1.1]hept-2-yl]acetamide], in assay [1], the Emax stood at 60% and the EC50 was 500 to 1000 nM. Besides, the “change” value in assay [2] is listed as “statistically significant change”.

`O=C(Cc1ccccc1)Nn1nc(-c2ccc(Cl)cc2)c2ccccc2c1=O` [Example 91, N-[4-(4-chlorophenyl)-1-oxophthalazin-2(1H)-yl]-2-phenylacetamide]: in assay [1], the Emax stood at 101% and the EC50 lay in the range of 100 to 500 nM. Besides, in assay [2], the “change” value is recorded as “statistically significant change”.

For `O=C(Cc1ccc(Cl)cc1)Nn1nc(-c2ccc(Cl)cc2)c2ccccc2c1=O` [Example 117, 2-(4-chlorophenyl)-N-[4-(4-chlorophenyl)-1-oxophthalazin-2(1H)-yl]acetamide], in assay [1], the Emax is 120% and the EC50 was in the range of 100 to 500 nM. Also, the “change” value in assay [2] is “statistically significant change”.
